Molecular target: MALT1 (Homo sapiens (Human), UniProt Q9UDY8)
Test: MALT1 enzymatic activity inhibition (fluorescence, Ac-LRSR-AMC substrate)
Format: biochemical
Conditions: recombinant MALT1 1.5 ng/μl, Ac-LRSR-AMC 1 μM
Method in brief: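 Recombinant human MALT1 (1.5 ng/μl final) preincubated 10 min at rt with compounds in 50 mM HEPES pH 7.2-7.4, 100 mM NaCl, 900 mM sodium citrate, 10 mM DTT; 1 μM Ac-LRSR-AMC then added. AMC fluorescence read at start and after 30 min 37 °C plus 30 min rt; difference gives signal, % inhibition fitted to IC50.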

MALT1, sequence (Q9UDY8 whole entry): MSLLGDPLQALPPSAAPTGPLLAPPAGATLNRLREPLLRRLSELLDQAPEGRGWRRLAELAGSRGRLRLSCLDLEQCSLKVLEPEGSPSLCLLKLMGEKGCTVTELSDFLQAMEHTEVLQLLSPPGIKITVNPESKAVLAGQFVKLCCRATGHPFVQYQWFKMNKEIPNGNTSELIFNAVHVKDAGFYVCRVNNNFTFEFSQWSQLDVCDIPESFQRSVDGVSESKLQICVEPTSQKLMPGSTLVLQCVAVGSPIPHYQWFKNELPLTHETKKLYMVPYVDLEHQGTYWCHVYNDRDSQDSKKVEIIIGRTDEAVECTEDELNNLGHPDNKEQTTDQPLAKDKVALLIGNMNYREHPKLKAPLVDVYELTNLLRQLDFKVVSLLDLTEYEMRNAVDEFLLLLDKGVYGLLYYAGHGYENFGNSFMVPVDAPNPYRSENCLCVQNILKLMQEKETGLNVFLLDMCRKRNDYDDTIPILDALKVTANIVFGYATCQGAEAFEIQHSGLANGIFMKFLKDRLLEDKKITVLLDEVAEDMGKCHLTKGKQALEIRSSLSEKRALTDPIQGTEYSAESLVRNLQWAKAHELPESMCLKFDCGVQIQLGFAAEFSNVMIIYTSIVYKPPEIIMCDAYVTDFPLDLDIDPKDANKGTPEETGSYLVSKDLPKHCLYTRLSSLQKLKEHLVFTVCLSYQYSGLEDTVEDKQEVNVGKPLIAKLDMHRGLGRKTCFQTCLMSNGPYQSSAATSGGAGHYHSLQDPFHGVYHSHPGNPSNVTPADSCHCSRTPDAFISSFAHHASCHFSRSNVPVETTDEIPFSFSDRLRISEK

| SMILES | EC50 |
| --- | --- |
| O=C(CCOCCN1CCN(c2ccc3c(c2)CN(C2CCC(=O)NC2=O)C3=O)CC1)NCCOc1ncc(Cl)cc1NC(=O)Nc1cnc2ccnn2c1C1CCCCC1 (stereo not drawn) [Compound 44] | 1 to 5 µM |
| O=C1CCC(N2Cc3cc(N4CCN(CCCCCCc5nnc(-c6ccc(NC(=O)Nc7cnc8ccnn8c7C7CCCC7)cn6)s5)CC4)ccc3C2=O)C(=O)N1 (stereo not drawn) [Compound 143, 1-(7-cyclopentylpyrazolo[1,5-a]pyrimidin-6-yl)-3-[6-[5-[6-[4-[2-(2,6-dioxo-3-piperidyl)-1-oxo-isoindolin-5-yl]piperazin-1-yl]hexyl]-1,3,4-thiadiazol-2-yl]-3-pyridyl]urea] | 1 to 5 µM |
| CC(C)(C)C(=O)OCN1C(=O)CCC(N2Cc3cc(N4CCN(C(=O)CCCCc5nc(-c6ncc(NC(=O)Nc7cnc8ccnn8c7C7CCCC7)cc6Cl)no5)CC4)ccc3C2=O)C1=O (stereo not drawn) [Compound 134, [3-[5-[4-[5-[3-[3-chloro-5-[(7-cyclopentylpyrazolo[1,5-a]pyrimidin-6-yl)carbamoylamino]-2-pyridyl]-1,2,4-oxadiazol-5-yl]pentanoyl]piperazin-1-yl]-1-oxo-isoindolin-2-yl]-2,6-dioxo-1-piperidyl]methyl 2,2-dimethylpropanoate] | ≤ 0.2 µM |
| Cc1cc(NC(=O)Nc2cnc3ccnn3c2C2CCCC2)cnc1-c1noc(CCCCC(=O)Nc2ccc(C3CCC(=O)NC3=O)cc2)n1 (stereo not drawn) [Compound 101, 5-[3-[5-[(7-cyclopentylpyrazolo[1,5-a]pyrimidin-6-yl)carbamoylamino]-3-methyl-2-pyridyl]-1,2,4-oxadiazol-5-yl]-N-[4-(2,6-dioxo-3-piperidyl)phenyl]pentanamide] | 0.2 to 0.5 µM |
| CO[C@@H](C)c1c(NC(=O)Nc2cc(Cl)cnc2OCCNC(=O)CCOCCN2CCN(c3ccc4c(c3)CN(C3CCC(=O)NC3=O)C4=O)CC2)cnc2ccnn12 (stereo partly drawn) [Compound 25, N-[2-[[5-chloro-3-[[7-[(1S)-1-methoxyethyl]pyrazolo[1,5-a]pyrimidin-6-yl]carbamoylamino]-2-pyridyl]oxy]ethyl]-3-[2-[4-[2-(2,6-dioxo-3-piperidyl)-1-oxo-isoindolin-5-yl]piperazin-1-yl]ethoxy]propanamide] | 0.2 to 0.5 µM |
| CC(C)c1c(NC(=O)Nc2cnc(-c3noc(CCCCCC(=O)N4CCN(c5ccc6c(c5)CN(C5CCC(=O)NC5=O)C6=O)CC4)n3)c(Cl)c2)cnc2ccnn12 (stereo not drawn) [Compound 66, 1-[5-chloro-6-[5-[6-[4-[2-(2,6-dioxo-3-piperidyl)-1-oxo-isoindolin-5-yl]piperazin-1-yl]-6-oxo-hexyl]-1,2,4-oxadiazol-3-yl]-3-pyridyl]-3-(7-isopropylpyrazolo[1,5-a]pyrimidin-6-yl)urea] | ≤ 0.2 µM |
| Cc1cc(NC(=O)Nc2cnc3ccnn3c2C(C)C)cnc1-c1noc(CCCC(=O)N2CCN(c3ccc4c(c3)CN(C3CCC(=O)N(C)C3=O)C4=O)CC2)n1 (stereo not drawn) [Compound 144, 1-(7-isopropylpyrazolo[1,5-a]pyrimidin-6-yl)-3-[5-methyl-6-[5-[4-[4-[2-(1-methyl-2,6-dioxo-3-piperidyl)-1-oxo-isoindolin-5-yl]piperazin-1-yl]-4-oxo-butyl]-1,2,4-oxadiazol-3-yl]-3-pyridyl]urea] | ≤ 0.2 µM |
| Cc1cc(NC(=O)Nc2cnc3ccnn3c2C2CC2)cnc1-c1noc(CCCCC(=O)N2CCN(c3ccc4c(c3)CN(C3CCC(=O)NC3=O)C4=O)CC2)n1 (stereo not drawn) [Compound 169, 1-(7-cyclopropylpyrazolo[1,5-a]pyrimidin-6-yl)-3-[6-[5-[5-[4-[2-(2,6-dioxo-3-piperidyl)-1-oxo-isoindolin-5-yl]piperazin-1-yl]-5-oxo-pentyl]-1,2,4-oxadiazol-3-yl]-5-methyl-3-pyridyl]urea] | ≤ 0.2 µM |
| Cc1cc(NC(=O)Nc2cnc3ccnn3c2C2CCC2)cnc1-c1noc(CCCCCC(=O)N2CCN(c3ccc4c(c3)CN(C3CCC(=O)NC3=O)C4=O)CC2)n1 (stereo not drawn) [Compound 114, 1-(7-cyclobutylpyrazolo[1,5-a]pyrimidin-6-yl)-3-[6-[5-[6-[4-[2-(2,6-dioxo-3-piperidyl)-1-oxo-isoindolin-5-yl]piperazin-1-yl]-6-oxo-hexyl]-1,2,4-oxadiazol-3-yl]-5-methyl-3-pyridyl]urea] | ≤ 0.2 µM |
| O=C1CCC(N2Cc3cc(N4CCN(C(=O)CCCCn5cc(NC(=O)Nc6cnc7ccnn7c6C6CCC6)c(C(F)(F)F)n5)CC4)ccc3C2=O)C(=O)N1 (stereo not drawn) [Compound 152, 1-(7-cyclobutylpyrazolo[1,5-a]pyrimidin-6-yl)-3-[1-[5-[4-[2-(2,6-dioxo-3-piperidyl)-1-oxo-isoindolin-5-yl]piperazin-1-yl]-5-oxo-pentyl]-3-(trifluoromethyl)pyrazol-4-yl]urea] | 1 to 5 µM |
| Cc1cc(NC(=O)Nc2cnc3nccn3c2C2CCCC2)cnc1-c1noc(CCCCCC(=O)N2CCN(c3ccc4c(c3)CN(C3CCC(=O)NC3=O)C4=O)CC2)n1 (stereo not drawn) [Compound 9, 1-(5-cyclopentylimidazo[1,2-a]pyrimidin-6-yl)-3-[6-[5-[6-[4-[2-(2,6-dioxo-3-piperidyl)-1-oxo-isoindolin-5-yl]piperazin-1-yl]-6-oxo-hexyl]-1,2,4-oxadiazol-3-yl]-5-methyl-3-pyridyl]urea] | > 5 µM |
| O=C(CCOCCOCCN1CCN(c2ccc3c(c2)CN(C2CCC(=O)NC2=O)C3=O)CC1)NCCNC(=O)[C@@H]1C[C@@H](O)CN1C(=O)Nc1cnc2ccnn2c1C1CCCC1 (stereo partly drawn) [Compound 47, (2S,4R)-N1-(7-cyclopentylpyrazolo[1,5-a]pyrimidin-6-yl)-N2-[2-[3-[2-[2-[4-[2-(2,6-dioxo-3-piperidyl)-1-oxo-isoindolin-5-yl]piperazin-1-yl]ethoxy]ethoxy]propanoylamino]ethyl]-4-hydroxy-pyrrolidine-1,2-dicarboxamide] | > 5 µM |
| O=C1CCC(N2Cc3cc(N4CCN(C(=O)CCCCn5cc(NC(=O)Nc6cnc7ccnn7c6C6CCCO6)c(C(F)(F)F)n5)CC4)ccc3C2=O)C(=O)N1 (stereo not drawn) [Compound 155, 1-[1-[5-[4-[2-(2,6-dioxo-3-piperidyl)-1-oxo-isoindolin-5-yl]piperazin-1-yl]-5-oxo-pentyl]-3-(trifluoromethyl)pyrazol-4-yl]-3-(7-tetrahydrofuran-2-ylpyrazolo[1,5-a]pyrimidin-6-yl)urea] | > 5 µM |
| Cc1cc(NC(=O)Nc2cnc3ccnn3c2C2CCCO2)cnc1NCCOCCOCCOCCC(=O)N1CCN(c2ccc3c(c2)CN(C2CCC(=O)NC2=O)C3=O)CC1 (stereo not drawn) [Compound 29, 1-[6-[2-[2-[2-[3-[4-[2-(2,6-dioxo-3-piperidyl)-1-oxo-isoindolin-5-yl]piperazin-1-yl]-3-oxo-propoxy]ethoxy]ethoxy]ethylamino]-5-methyl-3-pyridyl]-3-(7-tetrahydrofuran-2-ylpyrazolo[1,5-a]pyrimidin-6-yl)urea] | > 5 µM |
| Cc1cc2ncc(NC(=O)Nc3cnc(-c4noc(CCCCCCN5CCN(c6ccc7c(c6)CN(C6CCC(=O)NC6=O)C7=O)CC5)n4)c(C)c3)c(C3CCCC3)n2n1 (stereo not drawn) [Compound 83, 1-(7-cyclopentyl-2-methyl-pyrazolo[1,5-a]pyrimidin-6-yl)-3-[6-[5-[6-[4-[2-(2,6-dioxo-3-piperidyl)-1-oxo-isoindolin-5-yl]piperazin-1-yl]hexyl]-1,2,4-oxadiazol-3-yl]-5-methyl-3-pyridyl]urea] | ≤ 0.2 µM |
| O=C1CCC(N2Cc3cc(N4CCN(CCCCc5nc(-c6ncc(NC(=O)Nc7cnc8ccnn8c7C7CC7)cc6Cl)no5)CC4)ccc3C2=O)C(=O)N1 (stereo not drawn) [Compound 166, 1-[5-chloro-6-[5-[4-[4-[2-(2,6-dioxo-3-piperidyl)-1-oxo-isoindolin-5-yl]piperazin-1-yl]butyl]-1,2,4-oxadiazol-3-yl]-3-pyridyl]-3-(7-cyclopropylpyrazolo[1,5-a]pyrimidin-6-yl)urea] | ≤ 0.2 µM |
| O=C1CCC(N2Cc3cc(N4CCN(CCCCCCc5nc(-c6ncc(NC(=O)Nc7cnc8ccnn8c7C7CC7)cc6Cl)no5)CC4)ccc3C2=O)C(=O)N1 (stereo not drawn) [Compound 159, 1-[5-chloro-6-[5-[6-[4-[2-(2,6-dioxo-3-piperidyl)-1-oxo-isoindolin-5-yl]piperazin-1-yl]hexyl]-1,2,4-oxadiazol-3-yl]-3-pyridyl]-3-(7-cyclopropylpyrazolo[1,5-a]pyrimidin-6-yl)urea] | ≤ 0.2 µM |
| O=C(CCOCCN1CCN(c2ccc3c(c2)CN(C2CCC(=O)NC2=O)C3=O)CC1)NCCOc1ncc(Cl)cc1NC(=O)Nc1cnc2nccn2c1C1CCCC1 (stereo not drawn) [Compound 52, N-[2-[[5-chloro-3-[(5-cyclopentylimidazo[1,2-a]pyrimidin-6-yl)carbamoylamino]-2-pyridyl]oxy]ethyl]-3-[2-[4-[2-(2,6-dioxo-3-piperidyl)-1-oxo-isoindolin-5-yl]piperazin-1-yl]ethoxy]propanamide] | > 5 µM |
| Cc1cc(NC(=O)Nc2cnc3ccnn3c2C2CCCC2)cnc1-c1noc(CCCCCC(=O)N2CCN(c3ccc4c(c3)CN(C3CCC(=O)NC3=O)C4=O)CC2)n1 (stereo not drawn) [Compound 4, 1-(7-cyclopentylpyrazolo[1,5-a]pyrimidin-6-yl)-3-[6-[5-[6-[4-[2-(2,6-dioxo-3-piperidyl)-1-oxo-isoindolin-5-yl]piperazin-1-yl]-6-oxo-hexyl]-1,2,4-oxadiazol-3-yl]-5-methyl-3-pyridyl]urea] | 0.2 to 0.5 µM |
| O=C1CCC(N2Cc3cc(N4CCN(C(=O)CCCc5nc(-c6ncc(NC(=O)Nc7cnc8ccnn8c7C7CCCC7)cc6Cl)no5)CC4)ccc3C2=O)C(=O)N1 (stereo not drawn) [Compound 71, 1-[5-chloro-6-[5-[4-[4-[2-(2,6-dioxo-3-piperidyl)-1-oxo-isoindolin-5-yl]piperazin-1-yl]-4-oxo-butyl]-1,2,4-oxadiazol-3-yl]-3-pyridyl]-3-(7-cyclopentylpyrazolo[1,5-a]pyrimidin-6-yl)urea] | ≤ 0.2 µM |
| CC(C)c1c(NC(=O)Nc2cn(CCCCC(=O)N3CCN(c4ccc5c(c4)CN(C4CCC(=O)NC4=O)C5=O)CC3)nc2C(F)(F)F)cnc2ccnn12 (stereo not drawn) [Compound 157, 1-[1-[5-[4-[2-(2,6-dioxo-3-piperidyl)-1-oxo-isoindolin-5-yl]piperazin-1-yl]-5-oxo-pentyl]-3-(trifluoromethyl)pyrazol-4-yl]-3-(7-isopropylpyrazolo[1,5-a]pyrimidin-6-yl)urea] | > 5 µM |
